Type in all cases: cell-based
For assay [1], the target named is T1, wild-type Androgen Receptor (AR-wt) (Homo sapiens, UniProt P10275).
T1 construct: expressed in transfected cells; host or cells: LNCaP (LNCaP AR (cs))
T1 sequence (P10275 1-920): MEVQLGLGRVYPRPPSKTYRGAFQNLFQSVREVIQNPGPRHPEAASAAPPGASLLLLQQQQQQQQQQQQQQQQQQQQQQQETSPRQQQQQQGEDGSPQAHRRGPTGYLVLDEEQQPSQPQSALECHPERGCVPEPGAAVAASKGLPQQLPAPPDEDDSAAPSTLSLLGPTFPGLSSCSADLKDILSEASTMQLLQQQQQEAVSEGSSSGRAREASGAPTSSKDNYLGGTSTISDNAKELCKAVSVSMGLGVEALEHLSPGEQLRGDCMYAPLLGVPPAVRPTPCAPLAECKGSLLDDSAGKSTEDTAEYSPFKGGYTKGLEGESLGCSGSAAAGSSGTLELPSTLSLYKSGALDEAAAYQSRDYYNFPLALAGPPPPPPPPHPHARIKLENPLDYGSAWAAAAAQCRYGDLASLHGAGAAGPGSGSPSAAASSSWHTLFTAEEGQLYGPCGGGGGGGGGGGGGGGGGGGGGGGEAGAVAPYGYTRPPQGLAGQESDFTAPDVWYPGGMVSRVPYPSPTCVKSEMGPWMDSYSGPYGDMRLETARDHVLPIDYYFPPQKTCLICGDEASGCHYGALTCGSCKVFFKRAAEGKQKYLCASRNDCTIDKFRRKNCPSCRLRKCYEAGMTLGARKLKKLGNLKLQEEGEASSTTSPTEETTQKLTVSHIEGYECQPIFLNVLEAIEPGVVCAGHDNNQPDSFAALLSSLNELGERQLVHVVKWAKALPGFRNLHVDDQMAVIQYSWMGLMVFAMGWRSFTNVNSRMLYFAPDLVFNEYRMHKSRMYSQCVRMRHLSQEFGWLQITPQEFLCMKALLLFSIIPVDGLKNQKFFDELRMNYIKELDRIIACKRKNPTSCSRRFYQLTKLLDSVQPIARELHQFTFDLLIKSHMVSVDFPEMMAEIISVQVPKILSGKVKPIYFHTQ
The assay is described as follows: LNCaP-AR-wt AG reporter assay (ARE firefly luciferase, agonist mode). The settings on record: for Emax: read-out: LNCaP-AR-wt AG MAX % Stim. Summed up: (§1)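 LNCaP stable pooled lines expressing ARE-firefly luciferase, in charcoal-stripped serum medium, were exposed to compounds; antagonist mode used agonist at 400 pM (WT) or 600 pM (F876L).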
A general note: Reporter assays use an easily measured gene product as a stand-in for the process of interest.

Assay [2] has as its target T2, F876L mutant Androgen Receptor (AR-F876L) (Homo sapiens, UniProt P10275, F877L).
T2 construct: expressed in transfected cells; host or cells: LNCaP (LNCaP F876L)
T2 sequence (P10275 1-920 F877L): T1 sequence (P10275 1-920) with F877L
The assay is described as follows: LNCaP-AR-F876L ANT reporter assay (ARE firefly luciferase, antagonist mode). The note with it: for Emax: read-out: LNCaP-AR-F876L ANT MAX % Inh; for IC50: read-out: LNCaP-AR-F876L ANT pIC50 (converted). Summed up:
as §1

In assay [3] the target is T2, F876L mutant Androgen Receptor (AR-F876L). The assay is described as follows: LNCaP-AR-F876L AG reporter assay (ARE firefly luciferase, agonist mode). The settings on record: for Emax: read-out: LNCaP-AR-F876L AG MAX % Stim. The method in brief:
as §1

Assay [4] deals with T1, wild-type Androgen Receptor (AR-wt). In words: LNCaP-AR-wt ANT reporter assay (ARE firefly luciferase, antagonist mode). The settings on record: for IC50: antagonist mode, 400 pM R-1881 challenge, −Log10(IC50 [Molar]), read-out: LNCaP-AR-wt ANT pIC50 (converted); for Emax: read-out: LNCaP-AR-wt ANT MAX % Inh. Summed up:
as §1

[5] abbreviates: agonist mode, −Log10(EC50 [Molar]), read-out: LNCaP-AR-wt AG pEC50 (converted).
Where [6] appears, read: maximum % stimulation (agonist response) over tested concentration range.
Setting [7] is: maximum % inhibition of R1881 control response over tested concentration range.
Setting [8] is: agonist mode, −Log10(EC50 [Molar]), read-out: LNCaP-AR-F876L AG pEC50 (converted).

These results are taken from patent US20180008587A1, “THIOHYDANTOIN ANDROGEN RECEPTOR ANTAGONISTS FOR THE TREATMENT OF CANCER” (Jaressen Pharmaceutica NV, priority 2016, published 2018).

Residue numbers refer to the chain shown, from its start. Read-outs that look alike come from different tables or passages of the source.

In the case of `N#Cc1ncc(N2C(=O)C3(CCC3)N(c3cccc(F)c3)C2=S)cc1C(F)(F)F` [Cpd 90, 5-[8-(3-fluorophenyl)-5-oxo-7-thioxo-6,8-diazaspiro[3.4]octan-6-yl]-3-(trifluoromethyl)pyridine-2-carbonitrile], the EC50 in assay [1] (setting [5]) and in assay [3] (setting [8]) was more than 15100 nM in each case. Also, the Emax in assay [1] (setting [6]) worked out at 0.5%; in assay [2] (setting [7]), 98.6%; in assay [3] (setting [6]), 1.4%; in assay [4] (setting [7]) it was 100%. Further, the IC50 in assay [2] is 631 nM; in assay [4], 513 nM.

Turning to `N#Cc1ncc(N2C(=O)C3(CCC3)N(c3ccc(OCCN4CCCCC4)cc3F)C2=S)cc1C(F)(F)F` [Cpd 91, 5-[8-[2-fluoro-4-[2-(1-piperidyl)ethoxy]phenyl]-5-oxo-7-thioxo-6,8-diazaspiro[3.4]octan-6-yl]-3-(trifluoromethyl)pyridine-2-carbonitrile], the EC50 in assay [1] (setting [5]) and in assay [3] (setting [8]) was more than 15100 nM throughout. Moreover, the Emax was 1.1% in assay [1] (setting [6]), 98.6% in assay [2] (setting [7]), 1.4% in assay [3] (setting [6]) and 98.5% in assay [4] (setting [7]). The results for the IC50 in assay [2] and in assay [4] were 302 nM and 537 nM, respectively.

For the compound `N#Cc1ncc(N2C(=O)C3(CCC3)N(c3ccc4[nH]ncc4c3)C2=S)cc1C(F)(F)F` [Cpd 92, 5-[8-(1H-indazol-5-yl)-5-oxo-7-thioxo-6,8-diazaspiro[3.4]octan-6-yl]-3-(trifluoromethyl)pyridine-2-carbonitrile], the EC50 in assay [1] and in assay [3] was more than 15100 nM in each case. Moreover, the Emax in assay [1] was 2.8%; in assay [2] it was 98.2%; in assay [3], 1.3%; in assay [4], 94.7%. The IC50 in assay [2] was 257 nM; in assay [4], 631 nM.

Take `Cc1cc(N2C(=O)C3(CCC3)N(c3ccc(-c4cncnc4)cc3)C2=S)cnc1C#N` [Cpd 93, 3-methyl-5-[5-oxo-8-(4-pyrimidin-5-ylphenyl)-7-thioxo-6,8-diazaspiro[3.4]octan-6-yl]pyridine-2-carbonitrile]: the EC50 in assay [1] and in assay [3] was more than 15100 nM throughout. The Emax came out at 0.9% in assay [1], 100% in assay [2], 0.8% in assay [3] and 100% in assay [4]. Besides, the IC50 in assay [2] was 234 nM; in assay [4], 407 nM.

Consider `COc1cc(F)ccc1N1C(=S)N(c2cnc(C#N)c(C(F)(F)F)c2)C(=O)C12CCC2` [Cpd 94, 5-[8-(4-fluoro-2-methoxy-phenyl)-5-oxo-7-thioxo-6,8-diazaspiro[3.4]octan-6-yl]-3-(trifluoromethyl)pyridine-2-carbonitrile], for which the EC50 in assay [1] (setting [5]) and in assay [3] (setting [8]) was more than 15100 nM throughout. Also, the Emax came to 6% in assay [1] (setting [6]), 99.2% in assay [2] (setting [7]), 1.5% in assay [3] (setting [6]) and 95% in assay [4] (setting [7]). For the same compound, the values for the IC50 in assay [2] and in assay [4] were 631 nM and 724 nM, respectively.

On to `N#Cc1ncc(N2C(=O)C3(CCC3)N(c3ccc(C(=O)NCc4cccc(Cl)c4)c(F)c3)C2=S)cc1C(F)(F)F` [Cpd 95, N-[(3-chlorophenyl)methyl]-4-[6-[6-cyano-5-(trifluoromethyl)-3-pyridyl]-5-oxo-7-thioxo-6,8-diazaspiro[3.4]octan-8-yl]-2-fluoro-benzamide], for which the EC50 in assay [1] (setting [5]) and in assay [3] (setting [8]) was more than 15100 nM in each case. Further, the Emax in assay [1] (setting [6]) amounted to 0.2%; in assay [2] (setting [7]), 92.3%; in assay [3] (setting [6]), 1.5%; in assay [4] (setting [7]), 96.1%. The IC50 was 1050 nM in assay [2] and 794 nM in assay [4].

For the compound `N#Cc1ncc(N2C(=O)C3(CCC3)N(c3ccc(C(=O)NCCc4cccnc4)c(F)c3)C2=S)cc1C(F)(F)F` [Cpd 96, 4-[6-[6-cyano-5-(trifluoromethyl)-3-pyridyl]-5-oxo-7-thioxo-6,8-diazaspiro[3.4]octan-8-yl]-2-fluoro-N-[2-(3-pyridyl)ethyl]benzamide], the EC50 in assay [1] (setting [5]) and in assay [3] (setting [8]) was more than 15100 nM throughout. In addition, the Emax came to 1.5% in assay [1] (setting [6]), 100% in assay [2] (setting [7]), 0.8% in assay [3] (setting [6]) and 101% in assay [4] (setting [7]). Also, the IC50 was 347 nM in assay [2] and 407 nM in assay [4].

In the case of `N#Cc1ncc(N2C(=O)C3(CCC3)N(c3cccc(OC(F)(F)F)c3)C2=S)cc1C(F)(F)F` [Cpd 97, 5-[5-oxo-7-thioxo-8-[3-(trifluoromethoxy)phenyl]-6,8-diazaspiro[3.4]octan-6-yl]-3-(trifluoromethyl)pyridine-2-carbonitrile], the EC50 in assay [1] (setting [5]) and in assay [3] (setting [8]) was more than 15100 nM throughout. Besides, the Emax in assay [1] is 0.7%; in assay [2] (setting [7]), 99.6%; in assay [3] it was 1.6%; in assay [4] (setting [7]), 100%. Also, the values for the IC50 in assay [2] and in assay [4] were 676 nM and 912 nM, respectively.

On to `N#Cc1ncc(N2C(=O)C3(CCC3)N(c3ccc(C(F)(F)F)cc3)C2=S)cc1C(F)(F)F` [Cpd 98, 5-[5-oxo-7-thioxo-8-[4-(trifluoromethyl)phenyl]-6,8-diazaspiro[3.4]octan-6-yl]-3-(trifluoromethyl)pyridine-2-carbonitrile], for which the EC50 in assay [1] (setting [5]) and in assay [3] (setting [8]) was more than 15100 nM in each case. The Emax in assay [1] (setting [6]) turned out to be 0%; in assay [2] (setting [7]) it was 98.9%; in assay [3] (setting [6]), 1.6%; in assay [4] (setting [7]), 102%. In addition, the IC50 in assay [2] was 245 nM; in assay [4], 295 nM.

`N#Cc1ncc(N2C(=O)C3(CCC3)N(c3ccc(Oc4ccccc4)cc3)C2=S)cc1C(F)(F)F` [Cpd 99, 5-[5-oxo-8-(4-phenoxyphenyl)-7-thioxo-6,8-diazaspiro[3.4]octan-6-yl]-3-(trifluoromethyl)pyridine-2-carbonitrile]: the EC50 in assay [1] (setting [5]) and in assay [3] (setting [8]) was more than 15100 nM each time. Further, the Emax in assay [1] amounted to 1.6%; in assay [2] (setting [7]), 85.9%; in assay [3], 1.6%; in assay [4] (setting [7]), 97.2%. The IC50 in assay [2] is 389 nM; in assay [4], 417 nM.
